How the values were obtained:
thrombin = thrombin (Homo sapiens, UniProt P00734); experiment: Nanoliter thrombin/fibrinogen reaction on MALDI target, MS detection of fibrinopeptides A and B; assay type: biochemical; conditions: benzamidine in the nanoliter reaction, FIG. 26B
Procedure: The glycerol in the reaction was then removed, and MALDI matrix was deposited to result in a thin film suitable (FIG. 26A) for MS detection of FPA/FPB.
A 8×12 array of reactions were printed using an OmniGrid microarrayer containing varying concentrations of fibrinogen and a fibrinopeptide MS satandard. Certain reactions contained 1 mM benzamidine. The array was activated with thrombin and incubated under humidity (top row, A), the glycerol was removed (middle row, A), and then coated with MALDI matrix (bottom row, A). […] Conditions of the MALDI MS were: Voyager-DE PRO (sinapinic acid matrix), Glu1-Fibrinopeptide B (1 ug/ml) control, Reflector Mode, Positive Polarity, 1000-2000 Da Acquisition Range, 20000 V Accelerating voltage, 2033 laser intensity (20.0 Hz; 100/spectrum), Extraction delay time: 150 nsec, Grid voltage: 75%, Guide wire voltage: 0.002%.

[1] = Fluorogenic substrate microarray, aerosol deposition of enzyme: boc-VPR-MCA; assay type: biochemical; conditions: after spray application
Procedure: Well characterized for over 30 years, serine proteases of the coagulation pathway in plasma were selected as a system in which to monitor the delivery of complex enzyme fluids to the microassay. Fluorogenic substrates in DMSO/glycerol were assayed to a glass slide.
After spray application, thrombin caused a 65-fold increase in fluorescence activity after conversion of the boc-VPR-MCA substrate. […] Aerosol deposition of pure tPA (10 μM) to a sensing array caused significant cleavage of the tPA, thrombin and Xa substrates, resulting in fluorescence that was 18- to 20-fold above background.

Compound	inhibition of thrombin release of fibrinopeptides A and B from fibrinogen (thrombin)	increase in fluorescence activity after conversion of the boc-VPR-MCA substrate [1]
N=C(N)c1ccccc1 [Benzamidine]	completely inhibited	
thrombin		65 fold

— patent US7598033B2, “Method and devices for running reactions on a target plate for MALDI mass spectrometry” (University of Pennsylvania, priority 2003, dated 2009)
